Data on one compound can be found in patent US9217163B2 (priority 2007, dated 2015).

SMILES strings stand for the structures. Like-named read-outs stand apart in the source and are kept apart here. Some results are limits rather than exact numbers.

One data set deals with biological systems. The following applies: Jones and Wood, 1986; cited from earlier work.
Data set [1] deals with Clostridium beijerinckii ATCC 10132. The following applies: butanol 1.5% to 3.5%, 37° C., 144 h. On the procedure: The tolerance was tested in both, the un-optimized AnS medium and optimized AnS medium. The bottles were inoculated with Clostridium beijerinckii ATCC 10132 After inoculation, the medium was incubated at 37° C. for 144 h and the OD at 600 nm was monitored at a regular interval of 12 h.

`CCCCO` [butanol, n-butanol]: the “concentration at which butanol is highly toxic to biological systems” value with biological systems was 2%. For the same compound, the results for the “butanol concentration tolerated (growth, OD 600 nm)” value in data set [1] (optimized AnS medium) and in data set [1] (un-optimized AnS medium) were no more than 3.5% and “up to 3.0%”, respectively.
